Legend:
[1] = test system: Erysiphe polygoni; assay: Powdery mildew on pinto bean, foliar application (ERY POL); type: in vivo; details: Erysiphe polygoni, similar procedure as barley (1,000 mg/l), read-out: Percent Reduction of Disease, ERY POL
Procedure: (§1) Compositions containing Compounds Nos. 1-81 were prepared by dissolving 0.24 grams of each of the compounds in 8 ml of acetone or other suitable inert solvent. Each of the resultant solutions was treated with 3 drops of TWEEN 20 (ethoxylated ethylene sorbitan monolaurate, a non-ionic surfactant)(I.C.I.), and water was added to form an emulsion. The degree of dilution with water was dictated by the desired concentration of the compound in the composition. The greater the quantity of water added, the lower the concentration of the compound in the composition, reported in milligrams per liter (mg/l) Ten plants of "Robust" variety barley were planted in each of a plurality of pots. Each pot was then either sprayed with one of the compositions of Example 9, at a composition concentration of 1,000 mg/l, or left unsprayed. For each pot sprayed, one pot was left unsprayed as a control. After the leaves of the sprayed pots were dried, the sprayed pots and the unsprayed control pots were placed in a greenhouse maintained at 21° C. All the pots were then inoculated with barley powdery mildew fungus, Erysiphe graminis. This inoculation was accomplished by distributing spores of the fungus over the leaves of the plants to be tested from plants which had previously been infected with the mildew disease. […] Again, percent control was computed by comparing the treatment scores with the scores of the untreated controls. The results are summarized in Table II under the heading "ERY GRA". Using a similar procedure as described above for the barley, pinto bean plants were prepared, treated and inoculated with the fungus Erysiphe polygoni. The results of this testing are summarized in Table II under the heading "ERY POL".

[2] = test system: Uromyces phaseoli; assay: Bean rust fungus eradicant test (URO PHA); type: in vivo; details: Uromyces phaseoli, 216 h, pinto bean, eradicant spray 2 days after inoculation, 1,000 mg/l; read-out: Percent Reduction of Disease, URO PHA
Procedure: Compositions containing Compounds Nos. 1-81 were prepared by dissolving 0.24 grams of each of the compounds in 8 ml of acetone or other suitable inert solvent. Each of the resultant solutions was treated with 3 drops of TWEEN 20 (ethoxylated ethylene sorbitan monolaurate, a non-ionic surfactant)(I.C.I.), and water was added to form an emulsion. The degree of dilution with water was dictated by the desired concentration of the compound in the composition. The greater the quantity of water added, the lower the concentration of the compound in the composition, reported in milligrams per liter (mg/l) A plurality of pots were each planted with two pinto bean plants, Phaseolus vulgaris, each, susceptible to rust disease. When the plants were 7 days old, at the primary leaf stage of growth, they were all sprayed with a suspension containing 20,000 spores of the bean rust fungus, Uromyces phaseoli, per ml. All the pots were then incubated in a controlled environmental chamber, maintained at 99% humidity and 21° C., for 24 hours to allow infection to occur. The plants were then removed from the incubator and allowed to dry. Two days after inoculation each of the infected plants was then either sprayed with one of the compositions of Example 9, at a dosage of 1,000 mg/l, or left unsprayed. The unsprayed plants acted as controls. All of the sprayed and unsprayed plants were then placed in a greenhouse at 21° C. for nine days to allow the disease to develop. […] Control of disease was determined by comparing treated plants with the untreated controls. The results, expressed as percent reduction of disease, are summarized in Table II under the heading "URO PHA".

[3] = test system: Erysiphe graminis; assay: Powdery mildew of barley, systemic root uptake (BMS); type: in vivo; details: 45 ml of 250 mg/l, 8 days after inoculation
Procedure: Compositions containing Compounds Nos. 1-81 were prepared by dissolving 0.24 grams of each of the compounds in 8 ml of acetone or other suitable inert solvent. Each of the resultant solutions was treated with 3 drops of TWEEN 20 (ethoxylated ethylene sorbitan monolaurate, a non-ionic surfactant)(I.C.I.), and water was added to form an emulsion. The degree of dilution with water was dictated by the desired concentration of the compound in the composition. The greater the quantity of water added, the lower the concentration of the compound in the composition, reported in milligrams per liter (mg/l) […] Upon reaching these ages, the plants were either treated with 45 ml of 250 mg/l concentration of the compositions of Example 9 or were left untreated. The untreated plants were used as controls. The 45 ml compositions saturated the soil of the treated pots without significant loss through drainage into the saucers below the pots. Twenty-four hours after the treatment with the compositions, both the barley and cucumber plants in all the pots, those treated and those untreated, were inoculated with powdery mildew fungus. This was accomplished by tapping leaves of previously infected barley and cucumber plants over the treated and untreated pots containing the barley and cucumber plants, respectively, to distribute spores of the fungus over the plants tested. […] Intermediate ratings were assigned depending on the degree of disease. […] The results of the powdery mildew disease control of barley are reported under the heading of "BMS". The results for cucumber mildew control are reported under the heading "CMS".

[4] = test system: Pythium ultimum; assay: Fungal growth inhibition, treated disc on agar (PYT ULT); type: cell-based; details: Globisporangium ultimum, disc dipped in 500 mg/l, 29° C., read-out: Percent Growth Inhibition, PYT ULT
Source text: Filter paper discs, each 11 mm. in diameter, were dipped in each of the test solutions. The discs were allowed to air dry to drive off the acetone solvent. A number of untreated discs were used as controls.
The treated and untreated discs were then placed on agar plates and one of the following fungus species: Septoria nodorum (SEP NOD), Botrytis cinerea (BOT CIN), Fusarium oxysporum (FUS OXY), Pythium ultimum (PYT ULT), Rhizoctonia solani (RHI SOL), Colletotrichum gossypii (COL GOS), and Scierotinia minor (SCL MIN), was added to the center of each disc in the form of a culture plug with the fungus mat in contact with the paper of the test disc. Cercosporidium personatum (CER PER), was added to discs as a spore suspension (20,000 spores/ml) to the disc (two drops of spore suspension per disc), rather than a mycelial culture plug. The plates were then incubated at 29° C. in an oven.
With the exception of the discs containing Cercosporidium personatum, the discs were evaluated by first measuring the radius from the center of the fungus colony on the treated discs and on the untreated discs. Percent growth inhibition of each of the compounds tested was determined as a function of the difference between the radius of the fungus colony on the treated disc versus the radius of the fungus colony on the untreated disc.

[5] = test system: Erysiphe graminis; assay: Powdery mildew in barley, foliar application (ERY GRA); type: in vivo; details: Blumeria graminis, foliar, 192 h, foliar, 1,000 mg/l, 8 days after inoculation, read-out: Percent Reduction of Disease, ERY GRA
Procedure: as §1, with “GRA".” for “GRA". Using a similar procedure as described above for the barley, pinto bean plants were prepared, treated and inoculated with the fungus Erysiphe polygoni. The results of this testing are summarized in Table II under the heading "ERY POL".”

[6] = test system: Rhizoctonia solani; assay: Fungal growth inhibition, treated disc on agar (RHI SOL); type: cell-based; details: Rhizoctonia solani, disc dipped in 500 mg/l, 29° C., read-out: Percent Growth Inhibition, RHI SOL
[7] = test system: Fusarium oxysporum; assay: Fungal growth inhibition, treated disc on agar (FUS OXY); type: cell-based; details: Fusarium oxysporum, disc dipped in 500 mg/l, 29° C., read-out: Percent Growth Inhibition, FUS OXY

N#CC(CCc1ccccc1)(CCc1ccccc1)c1cccnc1 [A, reference compound]
pest or weed control at 1000 µg/mL [1]: 15% | pest or weed control at 1000 µg/mL [2]: 0% | Percent Reduction of Disease, BMS [3]: 15% | inhibition at 500 µg/mL [4]: 10% | pest or weed control at 1000 µg/mL [5]: 0% | inhibition at 500 µg/mL [6]: 10% | inhibition at 500 µg/mL [7]: 10%

CC(C)(C)c1ccc(CC(C#N)(Cc2ccc(C(C)(C)C)cc2)c2cccnc2)cc1 [B, reference compound]
pest or weed control at 1000 µg/mL [1]: 0% | pest or weed control at 1000 µg/mL [2]: 0% | Percent Reduction of Disease, BMS [3]: 10% | inhibition at 500 µg/mL [4]: 15% | pest or weed control at 1000 µg/mL [5]: 15% | inhibition at 500 µg/mL [6]: 15% | inhibition at 500 µg/mL [7]: 0%

CCCC(C#N)(CCc1ccccc1)c1cccnc1 (stereo not shown) [Compound 1]
pest or weed control at 1000 µg/mL [1]: 95% | pest or weed control at 1000 µg/mL [2]: 60% | Percent Reduction of Disease, BMS [3]: 60% | inhibition at 500 µg/mL [4]: 40% | pest or weed control at 1000 µg/mL [5]: 100% | inhibition at 500 µg/mL [6]: 95% | inhibition at 500 µg/mL [7]: 97%

CCCCCCCC(C#N)(CCc1ccccc1)c1cccnc1 (stereo not shown) [Compound 2]
pest or weed control at 1000 µg/mL [1]: 100% | pest or weed control at 1000 µg/mL [2]: 97% | Percent Reduction of Disease, BMS [3]: 0% | inhibition at 500 µg/mL [4]: 0% | pest or weed control at 1000 µg/mL [5]: 100% | inhibition at 500 µg/mL [6]: 0% | inhibition at 500 µg/mL [7]: 30%

CCCCCC(C#N)(CCc1ccccc1)c1cccnc1 (stereo not shown) [Compound 3]
pest or weed control at 1000 µg/mL [1]: 100% | pest or weed control at 1000 µg/mL [2]: 100% | Percent Reduction of Disease, BMS [3]: 35% | inhibition at 500 µg/mL [4]: 5% | pest or weed control at 1000 µg/mL [5]: 100% | inhibition at 500 µg/mL [6]: 10% | inhibition at 500 µg/mL [7]: 0%

C#CCC(C#N)(CCc1ccccc1)c1cccnc1 (stereo not shown) [Compound 4]
pest or weed control at 1000 µg/mL [1]: 90% | pest or weed control at 1000 µg/mL [2]: 0% | Percent Reduction of Disease, BMS [3]: 35% | inhibition at 500 µg/mL [4]: 100% | pest or weed control at 1000 µg/mL [5]: 70% | inhibition at 500 µg/mL [6]: 82% | inhibition at 500 µg/mL [7]: 100%

C=CCC(C#N)(CCc1ccccc1)c1cccnc1 (stereo not shown) [Compound 5]
pest or weed control at 1000 µg/mL [1]: 90% | pest or weed control at 1000 µg/mL [2]: 90% | Percent Reduction of Disease, BMS [3]: 85% | inhibition at 500 µg/mL [4]: 82% | pest or weed control at 1000 µg/mL [5]: 85% | inhibition at 500 µg/mL [6]: 100% | inhibition at 500 µg/mL [7]: 76%

COCC(C#N)(CCc1ccccc1)c1cccnc1 (stereo not shown) [Compound 6]
pest or weed control at 1000 µg/mL [1]: 100% | pest or weed control at 1000 µg/mL [2]: 50% | Percent Reduction of Disease, BMS [3]: 100% | inhibition at 500 µg/mL [4]: 50% | pest or weed control at 1000 µg/mL [5]: 70% | inhibition at 500 µg/mL [6]: 50% | inhibition at 500 µg/mL [7]: 93%

CC(C)CC(C#N)(CCc1ccccc1)c1cccnc1 (stereo not shown) [Compound 7]
pest or weed control at 1000 µg/mL [1]: 100% | pest or weed control at 1000 µg/mL [2]: 90% | Percent Reduction of Disease, BMS [3]: 35% | inhibition at 500 µg/mL [4]: 35% | pest or weed control at 1000 µg/mL [5]: 100% | inhibition at 500 µg/mL [6]: 94% | inhibition at 500 µg/mL [7]: 100%

CC(C)=CCC(C#N)(CCc1ccccc1)c1cccnc1 (stereo not shown) [Compound 8]
pest or weed control at 1000 µg/mL [1]: 99% | pest or weed control at 1000 µg/mL [2]: 80% | Percent Reduction of Disease, BMS [3]: 45% | inhibition at 500 µg/mL [4]: 35% | pest or weed control at 1000 µg/mL [5]: 100% | inhibition at 500 µg/mL [6]: 45% | inhibition at 500 µg/mL [7]: 0%

C=CCC(C#N)(CCc1ccc(F)cc1)c1cccnc1 (stereo not drawn) [Compound 9, 4-fluoro-α-(2-propenyl)-α-(3-pyridinyl)benzenebutanenitrile]
pest or weed control at 1000 µg/mL [1]: 99% | pest or weed control at 1000 µg/mL [2]: 100% | Percent Reduction of Disease, BMS [3]: 40% | inhibition at 500 µg/mL [4]: 35% | pest or weed control at 1000 µg/mL [5]: 100% | inhibition at 500 µg/mL [6]: 95% | inhibition at 500 µg/mL [7]: 100%

CCCC(C#N)(CCc1ccc(F)cc1)c1cccnc1 (stereo not shown) [Compound 10]
pest or weed control at 1000 µg/mL [1]: 99% | pest or weed control at 1000 µg/mL [2]: 100% | Percent Reduction of Disease, BMS [3]: 84% | inhibition at 500 µg/mL [4]: 40% | pest or weed control at 1000 µg/mL [5]: 100% | inhibition at 500 µg/mL [6]: 96% | inhibition at 500 µg/mL [7]: 97%

CCCCC(C#N)(CCc1ccc(F)cc1)c1cccnc1 (stereo not shown) [Compound 11]
pest or weed control at 1000 µg/mL [1]: 100% | pest or weed control at 1000 µg/mL [2]: 100% | Percent Reduction of Disease, BMS [3]: 74% | inhibition at 500 µg/mL [4]: 40% | pest or weed control at 1000 µg/mL [5]: 100% | inhibition at 500 µg/mL [6]: 98% | inhibition at 500 µg/mL [7]: 10%

CCCC(C#N)(CCCc1ccc(Cl)cc1)c1cccnc1 (stereo not shown) [Compound 12]
pest or weed control at 1000 µg/mL [1]: 95% | pest or weed control at 1000 µg/mL [2]: 100% | Percent Reduction of Disease, BMS [3]: 40% | inhibition at 500 µg/mL [4]: 90% | pest or weed control at 1000 µg/mL [5]: 100% | inhibition at 500 µg/mL [6]: 98% | inhibition at 500 µg/mL [7]: 80%

CCCCC(C#N)(CCCc1ccc(Cl)cc1)c1cccnc1 (stereo not shown) [Compound 13]
pest or weed control at 1000 µg/mL [1]: 100% | pest or weed control at 1000 µg/mL [2]: 100% | Percent Reduction of Disease, BMS [3]: 40% | inhibition at 500 µg/mL [4]: 10% | pest or weed control at 1000 µg/mL [5]: 100% | inhibition at 500 µg/mL [6]: 100% | inhibition at 500 µg/mL [7]: 60%

CCCC(C#N)(Cc1ccc(C(C)(C)C)cc1)c1cccnc1 (stereo not shown) [Compound 14]
pest or weed control at 1000 µg/mL [1]: 100% | pest or weed control at 1000 µg/mL [2]: 33% | Percent Reduction of Disease, BMS [3]: 0% | inhibition at 500 µg/mL [4]: 10% | pest or weed control at 1000 µg/mL [5]: 100% | inhibition at 500 µg/mL [6]: 5% | inhibition at 500 µg/mL [7]: 25%

CCCCC(C#N)(CCc1ccc(C)cc1)c1cccnc1 (stereo not shown) [Compound 34]
pest or weed control at 1000 µg/mL [1]: 100% | pest or weed control at 1000 µg/mL [2]: 100% | Percent Reduction of Disease, BMS [3]: 0% | inhibition at 500 µg/mL [4]: 0% | pest or weed control at 1000 µg/mL [5]: 100% | inhibition at 500 µg/mL [7]: 100%
